From patent publication US20260284208A1, “SYSTEM” (Oxford University Innovation Limited, priority 2023, published 2026)

Columns and labels:
[1] = system: library of 8,380 IKZF3 degrons (ZF-eGFP/mCherry reporter) in Jurkat cells; assay: Pooled library screen (FACS, NGS, limma voom LogFC of positive vs negative read counts); format: cell-based, human
Outline: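 Cells were lentivirally transduced at MOI <0.3, and mCherry+ cells were sorted 6 days later. Eight days after sorting, cells were treated with DMSO or thalidomide analog for 18 h at 37 °C. mCherry+GFPlow (DMSO-set gate, DAPI-excluded) and remaining cells were sorted, and degrons were PCR-amplified from gDNA and sequenced (>600× coverage, 3 biological replicates).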

[2] = biological target: Q147A mutated ZF (ANQS) fused to eGFP (Homo sapiens, UniProt Q96SW2+Q9UKT9, Q147A); assay: GFP degradation flow cytometry assay, Q147A mutant ZF-eGFP; format: cell-based
Sequence of Q147A mutated ZF (ANQS) fused to eGFP (Q9UKT9 130-189 Q147A): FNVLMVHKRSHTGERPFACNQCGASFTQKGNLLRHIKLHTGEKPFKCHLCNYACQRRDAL
Sequence of Q147A mutated ZF (ANQS) fused to eGFP (Q96SW2 whole entry, the tested form may be a part): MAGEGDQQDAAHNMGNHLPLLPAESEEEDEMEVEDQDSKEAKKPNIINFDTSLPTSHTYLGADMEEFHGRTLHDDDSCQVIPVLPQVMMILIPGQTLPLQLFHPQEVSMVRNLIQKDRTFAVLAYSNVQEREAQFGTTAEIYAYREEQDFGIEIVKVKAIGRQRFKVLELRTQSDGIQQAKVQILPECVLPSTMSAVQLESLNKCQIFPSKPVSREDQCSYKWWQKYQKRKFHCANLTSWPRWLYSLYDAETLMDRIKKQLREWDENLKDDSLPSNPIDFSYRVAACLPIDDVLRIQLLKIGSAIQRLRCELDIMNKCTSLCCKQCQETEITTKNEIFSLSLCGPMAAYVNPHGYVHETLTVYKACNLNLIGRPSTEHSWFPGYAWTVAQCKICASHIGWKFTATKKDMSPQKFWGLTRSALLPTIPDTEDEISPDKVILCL
Description: Jurkat cells were added to 96 well U-bottom assay plates (Falcon) at 1×10^5 cells per well and treated with compounds for 18 hours at 37° C. and 5% CO2. Cells were stained with 1 μg/mL DAPI (ThermoFisher) and acquired on a Cytoflex S (Beckman Coulter). Data was analysed using FlowJo 10.8.1 (BD).
To probe the potential for orthogonality in a bump-and-hole context, the same assay was carried out again on all compounds, but this time with a Q147A mutated ZF.
The pDC50 values derived from this screen were used along with the pDC50 values from the WT screen to assign an orthogonality index value to every compound according the following equation: […]

## CN1CCN(c2ccc3c(c2)C(=O)N(C2CCC(=O)NC2=O)C3=O)CC1 (stereo not shown) [B08, 2-(2,6-dioxopiperidin-3-yl)-5-(4-methylpiperazin-1-yl)isoindoline-1,3-dione]
[1]; Degron-ID 3476, SEQ ID NO 2339, 46F_47S_49E_50V_52G_53A_54T_55F_67L
  B08_logFC: 2.705
[1]; Degron-ID 3600, SEQ ID NO 2322, 46F_47T_49D_50I_52G_53A_54A_55F_67L
  B08_logFC: 2.751
[1]; Degron-ID 3732, SEQ ID NO 2280, 46F_47T_49N_50I_52G_53A_54P_55F_67L
  B08_logFC: 2.855
[1]; Degron-ID 3820, SEQ ID NO 2304, 46F_47T_49P_50V_52G_53A_54A_55F_67L
  B08_logFC: 2.797
[1]; Degron-ID 3832, SEQ ID NO 2318, 46F_47T_49P_50V_52G_53A_54P_55F_67L
  B08_logFC: 2.762
[1]; Degron-ID 3892, SEQ ID NO 2316, 46F_47V_49D_50V_52G_53A_54P_55F_67L
  B08_logFC: 2.764
[1]; Degron-ID 3900, SEQ ID NO 2351, 46F_47V_49E_50I_52G_53A_54A_55F_67L
  B08_logFC: 2.675
[1]; Degron-ID 3905, SEQ ID NO 2298, 46F_47V_49E_50I_52G_53A_54G_55F_67L
  B08_logFC: 2.805
[1]; Degron-ID 3955, SEQ ID NO 2295, 46F_47V_49E_50V_52G_53A_54S_55F_67L
  B08_logFC: 2.815
[1]; Degron-ID 4129, SEQ ID NO 2331, 46F_47W_49D_50V_52G_53A_54L_55F_67L
  B08_logFC: 2.733
[1]; Degron-ID 4132, SEQ ID NO 2320, 46F_47W_49D_50V_52G_53A_54P_55F_67L
  B08_logFC: 2.758
[1]; Degron-ID 4158, SEQ ID NO 2311, 46F_47W_49E_50I_52G_53A_54W_55F_67L
  B08_logFC: 2.771
[1]; Degron-ID 4168, SEQ ID NO 2309, 46F_47W_49E_50Q_52G_53A_54K_55F_67L
  B08_logFC: 2.774
[1]; Degron-ID 4182, SEQ ID NO 2288, 46F_47W_49E_50V_52G_53A_54D_55F_67L
  B08_logFC: 2.825
[1]; Degron-ID 4259, SEQ ID NO 2276, 46F_47W_49N_50V_52G_53A_54Y_55F_67L
  B08_logFC: 2.879
[1]; Degron-ID 4262, SEQ ID NO 2312, 46F_47W_49P_50I_52G_53A_54D_55F_67L
  B08_logFC: 2.769
[1]; Degron-ID 4269, SEQ ID NO 2299, 46F_47W_49P_50I_52G_53A_54L_55F_67L
  B08_logFC: 2.805
[1]; Degron-ID 4294, SEQ ID NO 2296, 46F_47W_49P_50Q_52G_53A_54R_55F_67L
  B08_logFC: 2.812
[1]; Degron-ID 4325, SEQ ID NO 2330, 46F_47Y_49D_50I_52G_53A_54G_55F_67L
  B08_logFC: 2.741
[1]; Degron-ID 4368, SEQ ID NO 2270, 46F_47Y_49D_50V_52G_53A_54K_55F_67L
  B08_logFC: 2.897
[1]; Degron-ID 4374, SEQ ID NO 2335, 46F_47Y_49D_50V_52G_53A_54R_55F_67L
  B08_logFC: 2.715
[1]; Degron-ID 4377, SEQ ID NO 2302, 46F_47Y_49D_50V_52G_53A_54V_55F_67L
  B08_logFC: 2.8
[1]; Degron-ID 4384, SEQ ID NO 2279, 46F_47Y_49E_50I_52G_53A_54F_55F_67L
  B08_logFC: 2.859
[1]; Degron-ID 4400, SEQ ID NO 2269, 46F_47Y_49E_50Q_52G_53A_54A_55F_67L
  B08_logFC: 2.899
[1]; Degron-ID 4413, SEQ ID NO 2317, 46F_47Y_49E_50Q_52G_53A_54Q_55F_67L
  B08_logFC: 2.763
[1]; Degron-ID 4415, SEQ ID NO 2272, 46F_47Y_49E_50Q_52G_53A_54S_55F_67L
  B08_logFC: 2.888
[1]; Degron-ID 4445, SEQ ID NO 2347, 46F_47Y_49N_50I_52G_53A_54G_55F_67L
  B08_logFC: 2.678
[1]; Degron-ID 4493, SEQ ID NO 2313, 46F_47Y_49N_50V_52G_53A_54Q_55F_67L
  B08_logFC: 2.769
[1]; Degron-ID 4495, SEQ ID NO 2266, 46F_47Y_49N_50V_52G_53A_54S_55F_67L
  B08_logFC: 2.902
[1]; Degron-ID 4508, SEQ ID NO 2306, 46F_47Y_49P_50I_52G_53A_54K_55F_67L
  B08_logFC: 2.789
[1]; Degron-ID 4509, SEQ ID NO 2274, 46F_47Y_49P_50I_52G_53A_54L_55F_67L
  B08_logFC: 2.886
[1]; Degron-ID 4536, SEQ ID NO 2353, 46F_47Y_49P_50Q_52G_53A_54T_55F_67L
  B08_logFC: 2.667
[1]; Degron-ID 4543, SEQ ID NO 2292, 46F_47Y_49P_50V_52G_53A_54E_55F_67L
  B08_logFC: 2.819
[1]; Degron-ID 4550, SEQ ID NO 2352, 46F_47Y_49P_50V_52G_53A_54M_55F_67L
  B08_logFC: 2.668
[1]; Degron-ID 6545, SEQ ID NO 2345, 46L_47F_49P_50I_52G_53F_54G_55C_67L
  B08_logFC: 2.683
[1]; Degron-ID 6550, SEQ ID NO 2301, 46L_47F_49P_50I_52G_53F_54M_55C_67L
  B08_logFC: 2.8
[1]; Degron-ID 6559, SEQ ID NO 2357, 46L_47F_49P_50I_52G_53F_54Y_55C_67L
  B08_logFC: 2.661
[1]; Degron-ID 6755, SEQ ID NO 2278, 46L_47S_49P_50I_52G_53F_54S_55C_67L
  B08_logFC: 2.86
[1]; Degron-ID 6775, SEQ ID NO 2332, 46L_47T_49P_50I_52G_53F_54S_55C_67L
  B08_logFC: 2.73
[1]; Degron-ID 6795, SEQ ID NO 2300, 46L_47V_49P_50I_52G_53F_54S_55C_67L
  B08_logFC: 2.801
[1]; Degron-ID 6824, SEQ ID NO 2285, 46L_47Y_49P_50I_52G_53F_54F_55C_67L
  B08_logFC: 2.841
[1]; Degron-ID 6834, SEQ ID NO 2344, 46L_47Y_49P_50I_52G_53F_54R_55C_67L
  B08_logFC: 2.685
[1]; Degron-ID 7574, SEQ ID NO 2310, 46F_47W_49E_50I_52G_53R_54R_55F_67L
  B08_logFC: 2.772
[1]; Degron-ID 7616, SEQ ID NO 2308, 46L_47A_49E_50I_52G_53F_54T_55C_67L
  B08_logFC: 2.779
[1]; Degron-ID 7636, SEQ ID NO 2363, 46L_47C_49E_50I_52G_53F_54T_55C_67L
  B08_logFC: 2.644
[1]; Degron-ID 7736, SEQ ID NO 2325, 46L_47H_49E_50I_52G_53F_54T_55C_67L
  B08_logFC: 2.749
[1]; Degron-ID 7915, SEQ ID NO 2362, 46L_47T_49E_50I_52G_53F_54S_55C_67L
  B08_logFC: 2.649
[1]; Degron-ID 7964, SEQ ID NO 2360, 46L_47Y_49E_50I_52G_53F_54F_55C_67L
  B08_logFC: 2.653
[1]; Degron-ID 7971, SEQ ID NO 2297, 46L_47Y_49E_50I_52G_53F_54N_55C_67L
  B08_logFC: 2.807
[1]; WT ZF sequence
  position of the WT sequence in the volcano plot of the library screen: far away from the ‘hits’ region
[2]; Q147A vs WT ZF, compounds with Q147A Dmax >=0.4 dismissed, 1080 min
  orthogonality index value (from pDC50 Q147A and pDC50 WT): > 10
[2]; flow cytometry, pDC50 comparison
  degradation against Q147A relative to WT: improved degradation
